Values of other authors, collected in patent publication US20130079371A1, “Bioadhesive Compositions of Local Anaesthetics” (PHARMANEST AB, priority 2010, published 2013).

- pKa: 8.1
Compound: CCCCN1CCCC[C@H]1C(=O)Nc1c(C)cccc1C [levobupivacaine]
